Measurements from patent US20240246957A1, “Diazepane Derivatives, Processes for their Preparation, and Uses thereof for the Amelioration, Prevention and/or Treatment of Mental and Neurological Diseases” (2N Pharma ApS, priority 2021, published 2024).

Experiments:
[1] = tested on: HEK293 cells; test: Fatty acid uptake assay using HEK293 cells; assay type: cell-based; settings: Homo sapiens, CPT1 inhibitor, racemic mixture, FIG. 1
Procedure: HEK293 cells were thawed and centrifuged at 400 g in 1 min, whereafter the supernatant was discarded. The cells were resuspended in DMEM+GlutaMax medium (cat #10566016, Invitrogen) containing 10% fetal calf serum (cat #10270-106, Invitrogen) and 1% penicillin/streptomycin (cat #15140-122, Life Technologies). HEK293 cells were seeded into a T25 flask and incubated at 37 degrees Celsius until 80% confluency. When the HEK293 cells reached confluency, cells were counted and seeded in a 96-well plate and with a volume of 10.000 cells/well in medium (as described above) and incubated overnight. Three wells were without cells serving as controls.
The cells were divided into two groups: 1) Example 1, and 2) Untreated. The fatty acid uptake assay (cat #408-100, BioVision) was carried out according to the protocol from BioVision. The only exception to the protocol was that the measurements in the PerkinElmer Multimode Plate Reader Enspire instrument was running overnight.
Statistics was performed in GraphPad Prism version 8.0. Repeated measure two-way ANOVA were conducted as the groups were tested multiple times followed by a multiple comparison Bonferroni post hoc test.

[2] = tested on: SOD1 G93A mice; test: Efficacy study (survival) in SOD1 G93A mouse model of ALS; assay type: in vivo; settings: compared to vehicle, Edaravone and Riluzole, survival = neurological score below 4, FIG. 2
Procedure: All experiments were approved by the Danish Animal Experiment Inspectorate (2017-15-0202-00088) and followed the National and European guidelines for conducting animal experiments. Animal experiments was conducted according to the ARRIVE guidelines. Mice were housed in IVC cages in a high barrier facility at Aalborg University, Denmark with a room temperature of 21° C. The mice were kept at a 12-hour light/dark cycle and had ad libitum access to food and water.
B6.Cg-Tg(SOD1*G93A)1Gur/J mice (Stock #004435) (SOD1) were purchased from Jackson Laboratory (Bar Harbor, USA). The congenic SOD1 mice were maintained in our animal facility by crossing hemizygote SOD1 male mice with female C57BI/6J mice. Litters were genotyped according to established protocol using DNA extracted from ear tissue punches. Male SOD1 mice were used to maintain the colony, and SOD1 female and their wildtype littermates were used for experiments. All animals were assessed for human endpoints daily, weight twice a week, and neurological score once a week. SOD1 females (n=4) were evaluated at baseline and day 128 for cylinder, dark-light and y-maze tests, and at baseline and day 142 by neurological score, grip strength, hangwire test and rotarod. […] In addition, survival was evaluated as described under neurological score, onset of disease and survival analysis.
Mice were evaluated by the same experimenter weekly. […]

SMILES	IC50 [1] [µM]	survival [2]
CC(=O)N1CCC(c2nc(-c3ccncc3)cs2)N(C(=O)COc2ccccc2)CC1 (single isomer, unassigned) [Example 1, 1-(4-acetyl-7-(4-(pyridin-4-yl)thiazol-2-yl)-1,4-diazepan-1-yl)-2-phenoxyethan-1-one]	0.3	–
CC(=O)N1CCC(c2nc(-c3ccncc3)cs2)N(C(=O)COc2ccccc2)CC1 (single isomer, unassigned) [Example 1-E1]	–	improved survival
CC(=O)N1CCC(c2nc(-c3ccncc3)cs2)N(C(=O)COc2ccccc2)CC1 (single isomer, unassigned) [Example 1-E2]	–	improved survival
